Experimental data reported in US20250163522A1, “METHODS FOR PRESERVING HEALTHY INTESTINAL MICROBIOME DURING GROWTH PROMOTER ADMINSTRATION” (BIOMEDIT, LLC, priority 2022, published 2025).
Where two headings read alike, the source gives them in different places.

Format: in vivo, chickens (Gallus gallus)
Description: 15 cecal samples and 10 serum samples from day 35 birds were sent to metabolon (Morrisville, NC) for untargeted metabolomics analysis. These numbers of samples were sent for both the control and narasin treatments. Serum samples were selected sequentially, that is, without knowledge of bird performance or results from other analyses.
Samples were prepared using the automated MicroLab STAR® system from Hamilton Company. Samples were extracted with methanol under vigorous shaking for 2 min (Glen Mills GenoGrinder 2000) to precipitate protein and dissociate small molecules bound to protein or trapped in the precipitated protein matrix, followed by centrifugation to recover chemically diverse metabolites. The resulting extract was divided into four fractions: two for analysis by two separate reverse phase (RP)/Ultrahigh Performance Liquid Chromatography-Tandem Mass Spectroscopy (UPLC-MS/MS) methods using positive ion mode electrospray ionization (ESI), one for analysis by RP/UPLC-MS/MS using negative ion mode ESI, and one for analysis by HILIC/UPLC-MS/MS using negative ion mode ESI. Samples were placed briefly on a TurboVap® (Zymark) to remove the organic solvent. The sample extracts were stored overnight under nitrogen before preparation for analysis.
The sample extract was dried and reconstituted in solvents compatible to each of the four methods. One aliquot was analyzed using acidic positive ion conditions, chromatographically optimized for more hydrophilic compounds. In this method, the extract is gradient-eluted from a C18 column (Waters UPLC BEH C18-2.1×100 mm, 1.7 μm) using water and methanol, containing 0.05% perfluoropentanoic acid (PFPA) and 0.1% formic acid (FA). A second aliquot was also analyzed using acidic positive ion conditions but was chromatographically optimized for more hydrophobic compounds. In this method, the extract is gradient eluted from the C18 column using methanol, acetonitrile, water, 0.05% PFPA and 0.01% FA, and is operated at an overall higher organic content. A third aliquot was analyzed using basic negative ion optimized conditions using a separate dedicated C18 column. The basic extracts were gradient-eluted from the column using methanol and water, and with 6.5 mM Ammonium Bicarbonate at pH 8. The fourth aliquot was analyzed via negative ionization following elution from a HILIC column (Waters UPLC BEH Amide 2.1×150 mm, 1.7 μm) using a gradient consisting of water and acetonitrile with 10 mM Ammonium Formate, pH 10.8. The MS analysis alternates between MS and data-dependent MS^n scans using dynamic exclusion. The scan range varies slightly between methods, but covers approximately 70-1000 m/z.
UPLC-MS/MS was done using a Waters ACQUITY ultra-performance liquid chromatography (UPLC) and a Thermo Scientific Q-Exactive high resolution/accurate mass spectrometer interfaced with a heated electrospray ionization (HESI-II) source and Orbitrap mass analyzer operated at 35,000 mass resolution.
Raw data was extracted, peak-identified, and QC processed using Metabolon's hardware and software. Compounds were identified by comparison to library entries of purified standards. The library, based on authenticated standards, contains the retention time/index (RI), mass to charge ratio (m/z), and chromatographic data (including MS/MS spectral data) on all molecules present in the library. Biochemical identifications were based on three criteria: retention index within a narrow RI window of the proposed identification, accurate mass match to the library+/−10 ppm, and the MS/MS forward and reverse scores. MS/MS scores are based on a comparison of the ions present in the experimental spectrum to ions present in the library entry spectrum.
Peaks were quantified as area-under-the-curve (AUC) detector ion counts. For each identified metabolite, AUC values were rescaled by dividing by the median AUC value across all samples. […]

[1] = cecum, day 35, corrected p-value<0.05

## CC[C@@H](C(=O)O)[C@@H]1O[C@@H]([C@@H](C)[C@H](O)[C@H](C)C(=O)[C@H](CC)[C@H]2O[C@]3(C=C[C@@H](O)[C@]4(CC[C@@](C)([C@H]5CC[C@](O)(CC)[C@H](C)O5)O4)O3)[C@H](C)C[C@@H]2C)[C@@H](C)C[C@@H]1C [narasin]
Cecum and serum, day 35
  spermidine concentration: lower concentration
cecum, day 35
  amino acid concentrations compared to controls: all 20 amino acids were found at lower concentrations
  riboflavin concentration: higher concentration
[1]
  number of metabolites at higher abundance compared to controls: 49
  number of metabolites at lower abundance compared to controls: 78
serum, day 35
  number of metabolites at higher abundance compared to controls: 4
  number of metabolites at lower abundance compared to controls: 93
  urea level compared to controls: lower levels
